Reference: BindingDB's records for doi:10.1021/jm800245z (Merck Research Laboratories, 2008)

Biological target: Gag-Pol polyprotein (Human immunodeficiency virus type 1 group M subtype B (isolate HXB2), UniProt P04585)
Test: Microtiter Plate Assay for Strand Transfer
Conditions: pH 7.8; 37 °C
Procedure: The microtiter plate assay for stand transfer was performed with an immobilized donor substrate and a target substrate biotinylated at the 3-prime end of each DNA strand. Integrase was first assembled with immobilized LTR oligonucleotides for 30 min. Inhibitors were added after assembly and washings. For the strand transfer reaction, it was initiated with the addition of the biotinylated target substrate. Strand transfer reaction mixtures were incubated for additional 30 min, and the strand transfer products were detected by using alkaline phosphatase-conjugated avidin (Boehringer Mannheim, Indianapolis, Ind.).

- IC50: > 5 µM
Structure (SMILES): CNC(=O)c1nc(C(C)(C)NC(=O)C(=O)N(C)C)n(C)c(=O)c1O [N-{2-[5-hydroxy-1-methyl-4-(methylcarbamoyl)-6-oxo-1,6-dihydropyrimidin-2-yl]propan-2-yl}-N',N'-dimethylethanediamide]
